One assay deals with T1, CK1α (Homo sapiens, UniProt P48729+Q96SW2).
T1 construct: HEK293 clonal lines with CRISPR KI HiBiT tag on CSNK1A1; host or cells: HEK293 clonal line, CRISPR knock-in HiBiT at the CSNK1A1 locus, stably expressing LgBiT
In words: CK1α NanoBit Assay (HiBiT-tagged CSNK1A1 in HEK293 cells, luminescence). The conditions noted are these: 24 h. The assay is classed as cell-based. The essentials: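 HEK293 with endogenous HiBiT-tagged CSNK1A1 and stable LgBiT, live-cell Endurazine substrate; compound added at 10 or 30 μM final top concentration after 16 h plating, then 24 h at 37 °C. Luminescence normalised to plate controls; DC50 by 3-parameter logistic fit, hill slope 1.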
In general terms: With HiBiT, luminescence reflects the tagged protein that the partner subunit can reach.

The next assay deals with CRBN/DDB1 (Homo sapiens, UniProt Q96SW2). In words: HTRF binding assay (displacement of Cy5-thalidomide probe from CRBN/DDB1). The note with it: CRBN/DDB1 2.5 nM, Cy5-Thalidomide 100 nM, 30 min; geometric mean; read-out: HTRF_Thali_Disp_DR_geo_IC50. A digest of the protocol: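 HTRF displacement of Cy5-thalidomide probe (100 nM) from His-tagged CRBN/DDB1 (2.5 nM) with anti-His terbium cryptate, in HEPES/NaCl/TCEP/EDTA/Tween20 buffer; 10-point 1:3 series, 30 min at ambient temperature. 665/620 nm ratio fitted 4-parameter logistic for IC50; Ki via Cheng-Prusoff.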
Sequence of CRBN/DDB1 (Q96SW2 whole entry): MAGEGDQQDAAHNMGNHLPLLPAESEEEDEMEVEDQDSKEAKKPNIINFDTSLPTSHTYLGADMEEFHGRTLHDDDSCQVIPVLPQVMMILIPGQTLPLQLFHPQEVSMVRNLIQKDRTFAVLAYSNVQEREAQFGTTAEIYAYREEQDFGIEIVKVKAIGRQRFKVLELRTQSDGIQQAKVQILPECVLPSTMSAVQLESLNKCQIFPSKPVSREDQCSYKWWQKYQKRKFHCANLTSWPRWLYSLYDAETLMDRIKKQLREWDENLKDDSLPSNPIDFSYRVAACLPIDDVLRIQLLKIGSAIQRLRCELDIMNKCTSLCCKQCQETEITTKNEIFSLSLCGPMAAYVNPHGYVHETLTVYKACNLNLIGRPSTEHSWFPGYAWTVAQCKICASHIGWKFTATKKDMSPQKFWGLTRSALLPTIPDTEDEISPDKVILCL
Sequence of CRBN/DDB1 (Q16531 whole entry partner): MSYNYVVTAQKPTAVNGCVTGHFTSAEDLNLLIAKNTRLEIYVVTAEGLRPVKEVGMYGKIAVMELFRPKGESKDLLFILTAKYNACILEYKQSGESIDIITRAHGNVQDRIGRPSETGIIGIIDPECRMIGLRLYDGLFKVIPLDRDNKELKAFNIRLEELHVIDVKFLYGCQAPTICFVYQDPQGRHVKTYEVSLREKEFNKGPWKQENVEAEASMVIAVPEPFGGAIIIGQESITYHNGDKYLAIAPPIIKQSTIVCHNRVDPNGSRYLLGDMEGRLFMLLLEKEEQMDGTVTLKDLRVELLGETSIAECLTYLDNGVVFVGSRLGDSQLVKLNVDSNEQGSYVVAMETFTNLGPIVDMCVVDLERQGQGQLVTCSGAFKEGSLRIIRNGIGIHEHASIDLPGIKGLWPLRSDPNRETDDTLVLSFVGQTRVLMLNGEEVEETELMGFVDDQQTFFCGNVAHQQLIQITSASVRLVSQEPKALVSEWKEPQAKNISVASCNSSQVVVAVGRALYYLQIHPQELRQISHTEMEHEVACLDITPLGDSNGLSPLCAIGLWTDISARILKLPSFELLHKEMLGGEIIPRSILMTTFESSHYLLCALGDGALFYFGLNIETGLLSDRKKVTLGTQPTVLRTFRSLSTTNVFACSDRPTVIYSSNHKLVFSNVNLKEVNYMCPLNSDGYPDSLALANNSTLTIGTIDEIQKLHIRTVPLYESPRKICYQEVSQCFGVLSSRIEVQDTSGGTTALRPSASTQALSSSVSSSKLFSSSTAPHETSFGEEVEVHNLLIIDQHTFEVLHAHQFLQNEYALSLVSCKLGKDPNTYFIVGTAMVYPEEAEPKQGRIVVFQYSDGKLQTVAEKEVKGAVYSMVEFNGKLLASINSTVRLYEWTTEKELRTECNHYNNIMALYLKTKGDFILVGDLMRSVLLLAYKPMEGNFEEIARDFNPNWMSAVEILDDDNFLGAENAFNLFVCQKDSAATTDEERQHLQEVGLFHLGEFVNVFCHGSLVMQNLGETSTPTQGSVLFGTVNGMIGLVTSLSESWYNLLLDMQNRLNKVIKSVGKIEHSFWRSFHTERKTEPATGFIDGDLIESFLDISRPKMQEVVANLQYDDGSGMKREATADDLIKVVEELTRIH

The source of these data is US20250115581A1, “SUBSTITUTED PIPERIDINES AS CK1A DEGRADERS” (Monte Rosa Therapeutics, Inc., priority 2022, published 2025).

T1 sequence (P48729 whole entry): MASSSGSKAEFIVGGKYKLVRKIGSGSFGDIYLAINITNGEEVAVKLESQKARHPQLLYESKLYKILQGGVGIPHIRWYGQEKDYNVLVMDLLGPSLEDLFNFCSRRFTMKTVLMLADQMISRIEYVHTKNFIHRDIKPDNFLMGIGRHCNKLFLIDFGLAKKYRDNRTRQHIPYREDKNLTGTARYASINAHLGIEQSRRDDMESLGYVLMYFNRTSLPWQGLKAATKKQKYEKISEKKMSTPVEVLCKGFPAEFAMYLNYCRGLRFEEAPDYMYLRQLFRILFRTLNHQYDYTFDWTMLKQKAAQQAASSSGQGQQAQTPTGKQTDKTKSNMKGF
T1 sequence (Q96SW2 whole entry): as the sequence (Q96SW2 whole entry) above
T1 sequence (Q16531 whole entry partner): as the sequence (Q16531 whole entry partner) above

Regarding `O=C1CCC(N2Cc3cc(N4CCN(c5ccccc5)C4=O)ccc3C2=O)C(=O)N1` (stereo not drawn) [Compound 101, 3-(1-oxo-5-(2-oxo-3-phenylimidazolidin-1-yl)isoindolin-2-yl)piperidine-2,6-dione], the DC50 on CK1α was not above 0.1 µM. The IC50 on CRBN/DDB1 was 100 to 1000 nM.
The corresponding values for `C[C@@H]1CN(c2ccc3c(c2)CN(C2CCC(=O)NC2=O)C3=O)C(=O)N1c1ccccc1` (stereo partly drawn) [Compound 107, 3-(5-((R)-4-methyl-2-oxo-3-phenylimidazolidin-1-yl)-1-oxoisoindolin-2-yl)piperidine-2,6-dione] are not above 0.1 µM and 100 to 1000 nM.
Molecule `C[C@@H]1CN(c2ccc3c(c2)CN(C2CCC(=O)NC2=O)C3=O)C(=O)N1c1ccc(C2CC2)cc1` (stereo partly drawn) [Compound 125, 3-(5-((R)-3-(4-cyclopropylphenyl)-4-methyl-2-oxoimidazolidin-1-yl)-1-oxoisoindolin-2-yl)piperidine-2,6-dione] showed a DC50 on CK1α not above 0.1 µM. The IC50 on CRBN/DDB1 is 100 to 1000 nM.
